Square brackets hold non-standard residues; d marks the D form. Peptide text beside a SMILES is read from it.
Experiments:
[1] = system: neonatal rat cardiac ventricular myocytes; test: Neonatal rat cardiac myocyte hypertrophy assay (crystal violet stain, microscopic hypertrophy score); type: cell-based
Description: A miniaturized assay is preferably used to assay the suspected antagonist(s) for hypertrophy-inhibiting activity. In this assay the medium used allows the cells to survive at a low plating density without serum. By plating directly into this medium, washing steps are eliminated so that fewer cells are removed. The plating density is important: many fewer cells and the survival is reduced; many more cells and the myocytes begin to self-induce hypertrophy.
The preferred hypertrophy assay comprises:
(a) pre-coating the wells of 96-well tissue culture plates with a medium containing calf serum, preferably D-MEM/F-12 medium containing 4% fetal calf serum, wherein preferably the wells are incubated with the medium for about eight hours at about 37°C.;
(c) plating a suspension of myocytes in the inner 60 wells at 7.5×10^4 cells per mL in D-MEM/F-12 medium supplemented with insulin, transferrin, and aprotinin;
(d) culturing the myocytes for at least 24 hours in the presence of LIF or endothelin;
(e) adding the test substance;
(f) culturing the cells with the test substance (preferably for about 24-72 hours, more preferably for about 48 hours); and
(g) evaluating hypertrophy, preferably after crystal violet stain, by microscopic examination.
(§1) Neonatal rat cardiac ventricular myocytes were cultured in 96-well plates 35 as described by Pennica et al., supra. Briefly, myocytes were isolated from one-day-old Sprague-Dawley rats by a series of collagenase digestions followed by Percoll™ gradient purification. Iwaki et al., J Biol Chem., 265: 13809-13817 (1990). The myocytes, which band at the lower gradient interface, were collected, washed twice, and re-suspended in D-MEM/F12 medium with 15% (vol/vol) fetal calf serum. The cells were diluted into serum-free D-MEM/F12 medium supplemented with 10 μg/mL transferrin, 1 μg/mL insulin, 1 μg/mL aprotinin, 2-mmol/L glutamine, 100 U/mL penicillin G, and 100 μg/mL streptomycin (assay medium) to a final density of 7.5×10^4 cells per mL. The final serum concentration of this assay medium with cells was <0.1%. Myocytes were plated 200 μL per well in 96-well, flat-bottomed plates that had previously been coated with D-MEM/F12 medium with 4% (vol/vol) fetal calf serum for 8 hours at 37° C. After 24 hours at 37° C. in 5% CO2, test substances were added. Forty-eight hours after the test substances were added, the cells were fixed and stained with 0.5% (wt/vol) crystal violet in methanol and formaldehyde, and the hypertrophy was scored on a scale of 1 to 7 by microscopic evaluation. Untreated cells were used as the negative control and scored as a 3. Toxic effects were scored from 0 to 2. The positive control in each assay was 100 μmol/L phenylephrine, which was scored as 7.

[2] = system: neonatal rat cardiac ventricular myocytes; test: Myocyte morphology and contractile fiber organization (phallacidin f-actin stain, confocal microscopy); type: cell-based; conditions: for organization of contractile fibers (f-actin): 48 hours exposure, fluorescent phallacidin stain
Protocol: as §1
The myocytes were plated in 4-chamber Lab Tek™ glass chamber slides pre-coated for 8 hours with 4% (vol/vol) fetal calf serum in D-MEM/F12 medium and cultured for 24 hours. They were exposed to test substances for 48 hours and then washed 3× in phosphate buffered saline (PBS) and fixed in 95% (vol/vol) ethanol for 15 minutes. The slides were then washed 3×0 in PBS with 0.1% (vol/vol) Tween-20™ surfactant, blocked for 30 minutes with 1% (wt/vol) BSA in PBS with 0.1% Tween-20™ surfactant, and incubated with phallacidin conjugated to BODIPY FL™ brand reagent (10 μg/mL in 1% BSA in PBS) (Molecular Probes, Eugene Oreg.) for 40 minutes to stain the f-actin present in the contractile fibers. The slides were then washed 3× with PBS in 0.1% Tween-20™ surfactant. Images of the phallacidin-stained cells were acquired on a Ultima™ laser-scanning confocal microscope (Meridian Instruments, Okemos, Mich.). A 1.4 NA 60×™ oil-immersion objective was utilized coupled with 488-nm excitation, with the resulting fluorescence measured following a 525-nm long-pass filter. […] The final images were constructed with a maximum fluorescence projection algorithm by compressing the multiple z or depth images into a single two-dimensional representation.

[3] = system: neonatal rat cardiac ventricular myocytes; conditions: neonatal rat cardiac myocytes in culture; Pennica et al. 1995; cited from earlier work

CNC[C@H](O)c1cccc(O)c1 [phenylephrine]
hypertrophy score (positive control) ([1]; 100 μmol/L phenylephrine, scale 1 to 7, untreated 3): 7
organization of contractile fibers (f-actin) [2]: organized in parallel arrays with prominent banding

CC[C@H](C)[C@H](NC(=O)[C@H](CC(=O)O)NC(=O)[C@H](CC(C)C)NC(=O)[C@H](Cc1c[nH]cn1)NC(=O)[C@@H]1CSSC[C@H](N)C(=O)N[C@@H](CO)C(=O)N[C@H]2CSSC[C@H](NC(=O)[C@H](CCC(=O)O)NC(=O)[C@H](CCCCN)NC(=O)[C@H](CC(=O)O)NC(=O)[C@H](CCSC)NC(=O)[C@H](CC(C)C)NC(=O)[C@H](CO)NC(=O)[C@H](CO)NC2=O)C(=O)N[C@@H](C(C)C)C(=O)N[C@@H](Cc2ccc(O)cc2)C(=O)N[C@@H](Cc2ccccc2)C(=O)N1)C(=O)N[C@H](C(=O)N[C@@H](Cc1c[nH]c2ccccc12)C(=O)O)[C@@H](C)CC [endothelin-1]
hypertrophic response (myocyte cell size and ANP production) ([1]; purified factors, even at nanomolar concentrations): partial hypertrophic responses
morphology of myocytes ([2]; 48-hour exposure to maximal concentrations): more compact with no processes
organization of contractile fibers (f-actin) [2]: not organized in parallel, had a tangled appearance, and did not show prominent banding

CC(C)C[C@@H]1NC(=O)[C@@H](C(C)C)NC(=O)[C@@H]2CCCN2C(=O)[C@@H](CC(=O)O)NC(=O)[C@@H](Cc2c[nH]c3ccccc23)NC1=O [BQ-123] (cyclo(L[dW][dD]P[dV]))
inhibition of NCM hypertrophy activity ([1]; FIG. 3, 100 μmol/L BQ-123, 50 μg/mL LIF Mab): partially inhibited
blocking of hypertrophy activity induced by endothelin-1 ([1]; FIG. 4A/5A, BQ-123 1-100 μmol/L, LIF Mab 0.5-50 μg/mL): blocked
blocking/neutralization of hypertrophy activity induced by mouse LIF ([1]; FIG. 4B/5B, BQ-123 1-100 μmol/L, LIF Mab 0.5-50 μg/mL): not
blocking of hypertrophy activity induced by phenylephrine ([1]; FIG. 4C/5C, BQ-123 1-100 μmol/L, LIF Mab 0.5-50 μg/mL): not
blocking of hypertrophy activity induced by CT-1 ([1]; FIG. 4D/5D, BQ-123 1-100 μmol/L, LIF Mab 0.5-50 μg/mL): not
effect on myocyte morphology by itself ([1]; inhibitor alone, no inducer): no effect
morphology of myocytes treated with NCM plus inhibitor ([2]; NCM and BQ-123 or LIF Mab): resembled those treated with purified LIF

B1: CT-1: cardiotrophin-1, member of the family of proteins that bind to GH/cytokine receptors (protein, UniProt Q16619 1-201, looked up)
Cardiotrophin-1: MSRREGSLEDPQTDSSVSLLPHLEAKIRQTHSLAHLLTKYAEQLLQEYVQLQGDPFGLPSFSPPRLPVAGLSAPAPSHAGLPVHERLRLDAAALAALPPLLDAVCRRQAELNPRAPRLLRRLEDAARQARALGAAVEALLAALGAANRGPRAEPPAATASAASATGVFPAKVLGLRVCGLYREWLSRTEGDLGQLLPGGSA
hypertrophy activity among proteins that bind GH/cytokine receptors [3]: most potent hypertrophy activity
